The numbers were not newly measured in PMC11477967, “Review of the Structural Characteristics and Biological Activities of Tricholoma Secondary Metabolites (2018–2023)” (Molecules, 2024), which cites them from elsewhere.

Each structure is given as a SMILES string. pIC50: −log10 of the molar value.

One may read the pIC50 as −log10 of the IC50, conventionally taken in molar units.

The subject of series [1] is MCF-7.
Another series has as its system human tumor cell lines. Set-up: method as in PMID 29758519, PMID 32534274, PMID 26186257. The note with it: Table 1 summary.
The subject of a further series is SW480. Set-up: method as in PMID 29758519, PMID 32534274.
In series [2] the test system is nitric oxide (NO) production in lipopolysaccharide (LPS)-induced RAW264.7 macrophages. As to conditions: for Bioactivities: Anti-inflammatory activity: Table 1 summary; for pIC50: LPS-induced RAW264.7 macrophages.
The subject of the next series is SMMC-7721. Set-up: method as in PMID 29758519, PMID 32534274.
The next series relates to Hep G2. The arrangement: method as in doi:10.1177/1934578X1801300901. As to conditions: said to surpass shikonin.
A further series relates to human cancer cell lines. As to conditions: for Bioactivities: Cytotoxic against human cancer cell lines: Table 1 summary.
In a further series the test system is A549. Set-up: method as in doi:10.1177/1934578X1801300901. The note with it: said to surpass shikonin.
For a further series, the system named is WISH. The arrangement: method as in doi:10.1177/1934578X1801300901.
Series [3] has as its system MCF-7. Set-up: method as in doi:10.1177/1934578X1801300901.
In a further series the test system is Caki-1. Set-up: method as in doi:10.1177/1934578X1801300901.
The subject of a further series is bacteria. The arrangement: method as in PMID 32534274, PMID 26186257, PMID 34604687, PMID 28794307. The note with it: Table 1 summary.

On to `COC(=O)C(Cc1ccccc1)NC(=O)CC(C)(O)CC(=O)OC1C(O)CC2(C)C3=C(CCC2C1(C)C)C1(C)CCC(C(C)CCC(O)C(C)(C)O)C1(C)C(O)C3` (centres unmarked) [Compound 2, pardinol B], for which the pIC50 in the series on MCF-7 [1], in the series with HL-60, in the series on A-549, in the series with SW480 and in the series on SMMC-7721 was over 4.40 each time. In addition, in the series with human tumor cell lines, the “Bioactivities: Anti-cancer activity” value was “Anti-cancer activity”. The “Bioactivities: Anti-inflammatory activity” value in series [2] is “Anti-inflammatory activity”.
In the case of `COC(=O)C(NC(=O)CC(C)(O)CC(=O)OC1CC2(C)C3=C(CCC2C(C)(C)C1O)C1(C)CCC(C(C)CCC(O)C(C)(C)O)C1(C)C(O)C3)C(OC(C)=O)c1ccccc1` (centres unmarked) [Compound 5, pardinol E], the “Bioactivities: Anti-cancer activity” value in the series on human tumor cell lines was “Anti-cancer activity”. Further, the “Bioactivities: Anti-inflammatory activity” value in [2] is listed as “Anti-inflammatory activity”.
Consider `COC(=O)C(NC(=O)CC(C)(O)CC(=O)OC1C(O)CC2(C)C3=C(CCC2C1(C)C)C1(C)CCC(C(C)CCC(O)C(C)(C)O)C1(C)C(O)C3)C(OC(C)=O)c1ccccc1` (centres unmarked) [Compound 6, pardinol F], for which the “Bioactivities: Anti-cancer activity” value in the series on human tumor cell lines is recorded as “Anti-cancer activity”. For the same molecule, the “Bioactivities: Anti-inflammatory activity” value in [2] was “Anti-inflammatory activity”.
As to `COC(=O)C(NC(=O)CC(C)(O)CC(=O)OC1C(O)CC2(C)C3=C(CCC2C1(C)C)C1(C)CCC(C2CCC(C(C)(C)O)OC2O)C1(C)C(O)C3)C(O)c1ccccc1` (centres unmarked) [Compound 7, pardinol G], the “Bioactivities: Anti-cancer activity” value in the series with human tumor cell lines is listed as “Anti-cancer activity”. Further, the “Bioactivities: Anti-inflammatory activity” value in series [2] was “Anti-inflammatory activity”.
Consider `COC(=O)C(NC(=O)CC(C)(O)CC(=O)OC1C(O)CC2(C)C3=C(CCC2C1(C)C)C1(C)CCC(C2CCC(C(C)(C)O)OC2O)C1(C)C(O)C3)C(OC(C)=O)c1ccccc1` (centres unmarked) [Compound 8, pardinol H], for which the “Bioactivities: Anti-cancer activity” value in the series with human tumor cell lines is given as “Anti-cancer activity”. In addition, the “Bioactivities: Anti-inflammatory activity” value in series [2] is given as “Anti-inflammatory activity”.
In the case of `C=C(CCC(C)C1CCC2(C)C3=C(CC(O)C12C)C1(C)CCC(OC(=O)CC(=O)OC)C(C)(C)C1CC3)C(C)C(=O)O` [Compound 16, (25S)-(+)-12α-hydroxy-3α-methylcarboxyacetate-24-methyllanosta-8,24(31)-diene-26-oic acid], the “Bioactivities: Anti-cancer activity” value in the series on human tumor cell lines is “Anti-cancer activity”.
In the case of `CC(C)C(C)C=CC(C)C1CCC2C3(O)C=CC4=CC(=O)CCC4(C)C3CCC12C` (centres unmarked) [Compound 26, isocyathisterol], the negative-log IC50 (pIC50) in the series on MCF-7 [1], in the series with HL-60, in the series on A-549, in the series with SW480 and in the series on SMMC-7721 was over 4.40 throughout. Further, the “Bioactivities: Anti-cancer activity” value in the series on human tumor cell lines was “Anti-cancer activity”.
`CC(C)[C@@H](C)/C=C/[C@@H](C)[C@H]1CC(=O)[C@H]2C3=C(CC[C@@]21C)[C@@]1(C)CC[C@H](O)CC1=CC3=O` [Compound 29, 3β-hydroxyl-(22E,24R)-ergosta-5,8,22-trien-7,15-dione]: the negative logarithm of the IC50 (pIC50) in the series with HL-60 is over 5.00. Moreover, in the series on human tumor cell lines, the “Bioactivities: Anti-cancer activity” value is “Anti-cancer activity”.
Regarding `CC(C)[C@@H](C)/C=C/[C@@H](C)[C@H]1CC[C@H]2C3=C(CC[C@]12C)[C@@]1(C)CC[C@H](O)CC1=CC3=O` [Compound 30, 3β-hydroxyl-(22E,24R)-ergosta-5,8,22-trien-7-one], in the series with HL-60, the negative-log IC50 (pIC50) is over 5.00. Also, the “Bioactivities: Anti-cancer activity” value in the series on human tumor cell lines was “Anti-cancer activity”.
As for `CC(C)[C@@H](C)/C=C/[C@@H](C)[C@H]1C[C@H](O)C2=C3C(=O)C=C4C[C@@H](O)CC[C@]4(C)[C@H]3CC[C@@]21C` [Compound 32, 3β,15α-dihydroxyl-(22E,24R)-ergosta-5,8(14),22-trien-7-one], the pIC50 with MCF-7 [1], with HL-60, in the series on A-549, in the series with SW480 and with SMMC-7721 was over 4.40 throughout. The “Bioactivities: Anti-cancer activity” value in the series on human tumor cell lines is given as “Anti-cancer activity”.
In the case of `CC(C)[C@@H](C)/C=C/[C@@H](C)[C@H]1CC(=O)C2=C3C(=O)C=C4C[C@@H](O)CC[C@]4(C)[C@H]3CC[C@@]21C` [Compound 34, 3β-hydroxyl-(22E,24R)-ergosta-5,8(14),22-trien-7,15-dione], the “Bioactivities: Anti-cancer activity” value with human tumor cell lines is reported as “Anti-cancer activity”.
With `CC(C)[C@@H](C)/C=C/[C@@H](C)[C@H]1CC[C@H]2C3=C(CC[C@]12C)[C@@]1(C)CC[C@H](O)C[C@@]12O[C@H]2[C@@H]3O` [Compound 35, 5α,6α-epoxy-(22E,24R)-ergosta-8,22-diene-3β,7β-diol], the “Bioactivities: Anti-cancer activity” value with human tumor cell lines is recorded as “Anti-cancer activity”.
Take `CC(C)C(C)C=CC(C)C1CCC2C3=CC(=O)OC3(O)CCC21C` (centres unmarked) [Compound 41, demethylincisterol A3]: the pIC50 in the series with MCF-7 [1], in the series on HL-60, with A-549, in the series with SW480 and with SMMC-7721 was over 4.40 in each case. Also, in the series with human tumor cell lines, the “Bioactivities: Anti-cancer activity” value is on record as “Anti-cancer activity”.
As for `COC12CCC3(C)C(CCC3C(C)C=CC(C)C(C)C)C1=CC(=O)O2` (centres unmarked) [Compound 42, volemolide], the negative-log IC50 (pIC50) in the series with MCF-7 [1], with HL-60, in the series with SW480 and in the series on SMMC-7721 was over 4.40 in each case. Moreover, the “Bioactivities: Anti-cancer activity” value in the series on human tumor cell lines is recorded as “Anti-cancer activity”.
In the case of `CC(C)[C@@H](C)/C=C/[C@@H](C)[C@@H](CC(=O)O)[C@@]1(C)CCC2=C(C1=O)[C@H](O)[C@@H]1O[C@@]13C[C@@H](O)CC[C@]23C` [Compound 46, tricholosterol A], in series [2], the pIC50 was 4.56 and the “Bioactivities: Anti-inflammatory activity” value is given as “Anti-inflammatory activity”.
Take `CC(C=CC(C)(O)C1CC(O)C2C3=CC(=O)OC3=CCC21C)C(C)(C)O` (centres unmarked) [Compound 49, tricholosterol D]: in series [2], the negative logarithm of the IC50 (pIC50) was 4.50 and the “Bioactivities: Anti-inflammatory activity” value is given as “Anti-inflammatory activity”.
Consider `C=C1CCC(CC=C2CCC3(OC2)OC2(O)CCC3(C)OC2(C)C)C(C)(C)C1C(O)C=C1CCOC1=O` (centres unmarked) [Compound 55, saponaceolide T], for which the “antiproliferative effects” value in the series with Hep G2, in the series on A549, in the series with WISH, in the series on MCF-7 [3] and with Caki-1 was “strong antiproliferative effects” throughout. For the same molecule, the “Bioactivities: Cytotoxic against human cancer cell lines” value (“Bioactivities: Cytotoxic” below) in the series with human cancer cell lines was “Cytotoxic against human cancer cell lines”.
In the case of `C=C1CCC(CCC2CCC3(OC2)OC2(O)CCC3(C)OC2(C)C)C(C)(C)C1C(O)C=C1C(=O)OCC1O` (centres unmarked) [Compound 58, saponaceolide C], the “antiproliferative effects” value in the series on Hep G2, in the series with A549, in the series with WISH, in the series on MCF-7 [3] and in the series with Caki-1 was “strong antiproliferative effects” each time. Also, the “Bioactivities: Cytotoxic” value in the series with human cancer cell lines was “Cytotoxic against human cancer cell lines”.
Regarding `C=C1CCC(CCC2CCC3(OC2)OC2(O)CCC3(C)OC2(C)C)C(C)(C)C1C(O)C=C1CCOC1=O` (centres unmarked) [Compound 61, saponaceolide H], the “antiproliferative effects” value with Hep G2, in the series on A549, in the series with WISH, in the series with MCF-7 [3] and with Caki-1 was “strong antiproliferative effects” each time. For the same molecule, the “Bioactivities: Cytotoxic” value in the series with human cancer cell lines was “Cytotoxic against human cancer cell lines”. Further, the “cytotoxicity rank” value with human cancer cell lines (among 55, 56, 58, 60, 61, cell line not specified) is “most significant cytotoxicity”.
In the case of `C=C1CC[C@@H](CCO)C(C)(C)[C@H]1C/C=C1/C(=O)OC[C@@H]1O` [Compound 70, tricholopardin B], in series [2], the pIC50 was 4.79 and the “Bioactivities: Anti-inflammatory activity” value is “Anti-inflammatory activity”.
On to `CCC1(O)OCC(N2C(=O)CCC2OC)C2=C1C(OC)CC2OC(=O)CC(C)C` (centres unmarked) [Compound 84, pardinumone A], for which the “Bioactivities: Antibacterial activity” value in the series with bacteria is “Antibacterial activity”.
Consider `CCC1(O)OCC(N2C(=O)CCC2OC)C2=C1C(OC)CC2OC(=O)CC(C)C` (centres unmarked) [Compound 85, pardinumone B], for which, in the series on bacteria, the “Bioactivities: Antibacterial activity” value is on record as “Antibacterial activity”.
Regarding `CC=C1OCC(NC(=O)CCC(N)C(=O)O)C2=C1C(OC)CC2OC(=O)CC(C)C` (centres unmarked) [Compound 86, pardinumone C], in the series with bacteria, the “Bioactivities: Antibacterial activity” value is “Antibacterial activity”.
For `CCC(=O)C1=C(C(COC(C)=O)NC(=O)CCC(N)C(=O)O)C(OC(=O)CC(C)C)CC1OC` (centres unmarked) [Compound 87, pardinumone D], the “Bioactivities: Antibacterial activity” value in the series on bacteria was “Antibacterial activity”.
